Assays:
Format in all cases: cell-based, human
[1] = system: HaCat keratinocytes or MCF10A mammary epithelial cells; assay: competition of LPA-induced haptotactic migration by GST fusion proteins or synthetic peptides (FIG. 10 summary); conditions: 0.1 to 30 μM, 3 μM LPA
Procedure: FIGS. 10A-C. Schematic summary of experiments using either recombinant GST fusion proteins or synthetic peptides to disrupt Sdc1-dependent coupling of HER2 to α6β4 integrin necessary for LPA-induced haptotactic migration. GST-fusion proteins or synthetic peptides were added at concentrations ranging from 0.1 to 30 μM to the culture medium of human HaCat keratinocytes or MCF10A mammary epithelial cells in the presence or absence of 3 μM LPA. The ability of the constructs to inhibit the migration of the cells to close a scratch wound in confluent monolayers was determined and expressed as the concentration of inhibitor necessary to cause 50% inhibition of cell migration. (FIG. 10A) Competition using recombinant GST-fusion proteins. GST-Sdc1 fusion proteins bearing truncations or mutations were assessed for their competitive activity. […] (FIG. 10B) Competition with synthetic peptides. Peptides were purchased from commercial sources for testing as a putative synstatin inhibitory peptide (SSTNHER2). […] (FIG. 10C) Schematic representation of the active site in Sdc1. The active site is shown as a juxtamembrane site in the ectodomain of Sdc1. TM is the transmembrane domain and CYTO is the cytoplasmic domain. The sequence of a peptide derived from this site (SSTNHER2) is shown along with its homology across other mammalian Sdc1 species. The human STTNHER2 sequence is SEQ ID NO:23; the homology for STTNHER2 across mammals is SEQ ID NO:24.
(§1) HaCat or MCF10A cells were grown to confluence on 48 well-plates were starved for 6 hr by serum deprivation followed by introduction of a scratch wound in the monolayer using 200 μl pipette tip. Cells were cultured an additional 18 hr in DMEM containing mAb 3E1 (10 μg/ml) and goat anti-mouse IgG (50 μg/ml), EGF (10 ng/ml) or HGF (20 ng/ml) to cause cell migration in the presence or absence of inhibitors. Images were acquired using a PlanApo 20 (0.75 numerical aperture) objective and a Photometrics CoolSnap ES camera on a Nikon Eclipse TE2000U microscopy system and wound closure quantified.

[2] = system: MCF10A mammary epithelial cells; assay: scratch wound haptotaxis induced by clustering the α6β4 integrin; conditions: α6β4 integrin clustered
Procedure: FIG. 9. Sdc1 ectodomain fragments and β4 dominant-negative mutant specific for Sdc1/α6β4/HER2 block MCF10A mammary epithelial cell migration. Haptotaxis of MCF10A human mammary epithelial cells induced by clustering the α6β4 integrin in a scratch wound assay is used to test the efficacy of inhibitors that target the Sdc1 mechanism. Cells are incubated either with entire recombinant syndecan ectodomains (Sdc1 ectodomain (S1ED) or Sdc4 ectodomain (S4ED) as a control), or an active fragment of mouse S1ED (S1ED^200-252) containing the inhibitory site.
as §1
The inventor used this assay to further truncate the S1ED recombinant proteins in order to find the smallest peptide that retains full inhibitory activity (e.g., SSTNHER2). The inventor tested mouse and human S1ED and find that they compete equally. […]

HaCat keratinocytes = assay: scratch wound haptotaxis induced by LPA and clustering of α6β4 integrin; conditions: LPA + α6β4 clustered with mAb 3E1 and secondary antibody, AG825 10 μM, Iressa 1 μM
Excerpt: FIG. 6A-D. Sdc1 is required for HER2/α6β4-dependent HaCat keratinocyte migration. (FIG. 6A) HaCat keratinocytes deposit laminin 332 (LN332) and migrate upon this using α3β1 and α6β4 integrins to close a scratch wound in the monolayer when stimulated to undergo chemotaxis in response to EGF. Alternatively, migration is induced by clustering the integrin (using mAb 3E1 against the integrin+a secondary antibody to cluster the first antibody and thus the entire complex) in the presence of LPA. This mimics the clustering that occurs when the cells engage LN332 and is referred to as haptotaxis. […] (FIG. 6B) Haptotaxis, stimulated by LPA and clustering of α6β4 integrin as described in FIG. 6A, is blocked by antibody directed against the α3β1 integrin or by BM165 which targets the binding site for α3β1 in LN332. […] (FIG. 6C) The potential roles of Sdc1 or Sdc4 in haptotaxis is tested by silencing their expression, together with attempting to rescue with either wild-type mouse Sdc1 or Sdc4, or mouse mutants unable to engage the β4 cytoplasmic domain (mSdc1ΔC2 or mSdc4ΔC2). Haptotaxis is blocked by silencing endogenous Sdc1, and this cannot be rescued by Sdc1ΔC2 that fails to engage the α6β4 integrin. Silencing Sdc4 also disrupts migration, but this traces to its role in activity of the α3β1 integrin and not a role in engaging the α6β4 integrin, as it can be rescued by mSdc4ΔC2 that fails to associate with the α6β4 integrin. (FIG. 6D) Immunoprecipitation of either native mSdc4 or mSdc4[…]C2 confirms that the mSdc4ΔC2 mutant no longer associates with the α6β4 integrin, but does with the α3β1 integrin. […]
HaCat or MCF10A cells were grown to confluence on 48 well-plates were starved for 6 hr by serum deprivation followed by introduction of a scratch wound in the monolayer using 200 μl pipette tip. […] Images were acquired using a PlanApo 20 (0.75 numerical aperture) objective and a Photometrics CoolSnap ES camera on a Nikon Eclipse TE2000U microscopy system and wound closure quantified. […]

Substance: SSTNHER2: synthetic peptide of human Sdc1 ectodomain amino acids 210-240 (SEQ ID NO:3), inhibits Sdc1 coupling of HER2 to α6β4 integrin (DFTFETSGENTAVVAVEPDRRNQSPVDQGAT; listed as Homo sapiens)
- competitive (inhibitory) activity on haptotactic migration [1]: fully active
- haptotaxis (migration to close a scratch wound) [2]: blocks haptotaxis
- haptotaxis (migration to close a scratch wound) (HaCat keratinocytes): blocks haptotaxis

Source: US10010581B2, “Syndecan peptides and polypeptides and uses thereof” (Wisconsin Alumni Research Foundation, priority 2012, dated 2018)
